Data on three compounds can be found in article PMC3100585 (The Annals of pharmacotherapy, 2010).

SMILES strings stand for the structures. Several values for one entry are separate records, joined by “and”; a condition that tells them apart may be missing. Equal values may be shown once.

For series [1], the system named is CYP3A4. In words: Midazolam pharmacokinetics. To be noted: for Midazolam AUC, median (dose normalized): 6 patients; for half-life: human, plasma, intravenous, 0.0145 mg/kg, Half-life of midazolam, median.
Another series deals with T1, mouse NR1I2 (Mus musculus, UniProt O54915).
T1 sequence (O54915 1-431): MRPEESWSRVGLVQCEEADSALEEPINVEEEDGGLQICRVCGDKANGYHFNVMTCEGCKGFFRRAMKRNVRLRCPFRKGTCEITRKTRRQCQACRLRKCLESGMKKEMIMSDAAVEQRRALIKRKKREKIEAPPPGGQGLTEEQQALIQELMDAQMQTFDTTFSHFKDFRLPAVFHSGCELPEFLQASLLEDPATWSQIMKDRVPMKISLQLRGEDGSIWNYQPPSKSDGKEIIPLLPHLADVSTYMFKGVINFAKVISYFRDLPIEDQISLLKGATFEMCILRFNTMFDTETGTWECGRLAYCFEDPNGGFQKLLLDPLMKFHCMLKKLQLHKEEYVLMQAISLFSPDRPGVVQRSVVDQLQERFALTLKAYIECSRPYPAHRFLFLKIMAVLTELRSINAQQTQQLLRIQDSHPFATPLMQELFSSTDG
In words: Luciferase reporter gene assay, full-length mouse NR1I2. The conditions noted are these: HepG2 cells, 24 hours; vinblastine 150-4800 ng/mL; PCN 50 μM. It counts as cell-based. On the technique in general: In a reporter assay the amount or activity of a reporter protein is the signal.

The target of another series is T2, human NR1I3 (Homo sapiens, UniProt Q14994).
T2 sequence (Q14994 1-348 isoform Q14994-2): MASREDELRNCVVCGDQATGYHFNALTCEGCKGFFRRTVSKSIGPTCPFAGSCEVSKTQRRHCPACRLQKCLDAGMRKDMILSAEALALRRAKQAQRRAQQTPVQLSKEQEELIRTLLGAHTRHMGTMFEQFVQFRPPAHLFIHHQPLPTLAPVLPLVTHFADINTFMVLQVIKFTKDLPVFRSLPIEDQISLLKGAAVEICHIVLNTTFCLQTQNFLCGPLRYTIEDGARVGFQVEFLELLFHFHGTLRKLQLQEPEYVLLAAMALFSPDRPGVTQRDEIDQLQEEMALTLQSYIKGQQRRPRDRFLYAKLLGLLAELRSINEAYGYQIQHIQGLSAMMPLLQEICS
T2 sequence (P28700 1-467 partner): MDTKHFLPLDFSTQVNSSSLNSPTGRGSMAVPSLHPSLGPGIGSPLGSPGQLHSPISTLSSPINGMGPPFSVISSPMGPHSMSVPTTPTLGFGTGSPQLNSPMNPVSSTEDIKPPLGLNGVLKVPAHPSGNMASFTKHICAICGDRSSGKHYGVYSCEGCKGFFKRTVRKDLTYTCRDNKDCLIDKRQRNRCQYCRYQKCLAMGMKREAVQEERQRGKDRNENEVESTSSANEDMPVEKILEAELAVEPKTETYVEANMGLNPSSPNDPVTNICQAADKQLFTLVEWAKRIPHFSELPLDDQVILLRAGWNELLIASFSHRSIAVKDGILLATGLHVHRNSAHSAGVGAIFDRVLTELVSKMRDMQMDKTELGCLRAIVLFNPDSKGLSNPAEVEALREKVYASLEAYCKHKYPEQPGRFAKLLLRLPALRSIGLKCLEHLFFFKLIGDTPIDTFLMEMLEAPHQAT
To be noted: NIH3T3 cells, 24 hours; vinblastine 150-4800 ng/mL.

Series [2] deals with CYP3A4. To be noted: cited from earlier work.
In another series the target is T3, human NR1I2 (Homo sapiens, UniProt O75469).
T3 sequence (O75469 1-434): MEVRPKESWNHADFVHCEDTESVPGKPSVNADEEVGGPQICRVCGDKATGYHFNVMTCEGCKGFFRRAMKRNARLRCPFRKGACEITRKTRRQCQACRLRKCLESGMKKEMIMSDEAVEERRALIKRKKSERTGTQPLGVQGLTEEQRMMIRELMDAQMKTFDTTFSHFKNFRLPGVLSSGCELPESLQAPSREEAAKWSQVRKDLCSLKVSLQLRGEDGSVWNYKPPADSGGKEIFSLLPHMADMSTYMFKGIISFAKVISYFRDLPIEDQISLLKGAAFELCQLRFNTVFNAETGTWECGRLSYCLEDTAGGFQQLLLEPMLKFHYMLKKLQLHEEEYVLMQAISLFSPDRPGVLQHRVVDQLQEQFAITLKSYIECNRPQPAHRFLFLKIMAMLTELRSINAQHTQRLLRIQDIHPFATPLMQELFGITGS
The conditions noted are these: HepG2 cells, 24 hours; vinblastine 150-4800 ng/mL; rifampin 10 μM.

For a further series, the target named is T4, mouse NR1I3 (Mus musculus, UniProt O35627).
T4 sequence (O35627 1-358): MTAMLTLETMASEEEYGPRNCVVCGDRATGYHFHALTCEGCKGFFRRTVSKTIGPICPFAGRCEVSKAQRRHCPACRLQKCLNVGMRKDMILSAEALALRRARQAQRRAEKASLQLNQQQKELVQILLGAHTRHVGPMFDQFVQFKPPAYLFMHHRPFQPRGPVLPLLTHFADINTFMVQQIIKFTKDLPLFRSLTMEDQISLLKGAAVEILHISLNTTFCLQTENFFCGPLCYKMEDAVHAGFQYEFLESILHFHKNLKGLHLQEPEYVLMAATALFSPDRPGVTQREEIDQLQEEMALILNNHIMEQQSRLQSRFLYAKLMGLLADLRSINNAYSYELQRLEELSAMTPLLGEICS
The conditions noted are these: NIH3T3 cells, 24 hours; vinblastine 150-4800 ng/mL.

The subject of series [3] is CYP3A4 protein in HepG2 cells. In words: CYP3A4 protein expression by Western blot in HepG2 cells. The conditions noted are these: 48 hours, vinblastine 300 ng/mL and above (range 150-4800 ng/mL). It counts as cell-based, human. (Immunoblotting shows a protein as a band on a membrane.)

Consider `Cc1ncc2n1-c1ccc(Cl)cc1C(c1ccccc1F)=NC2` [midazolam], for which the “Midazolam AUC, median (dose normalized)” value was 46.4 ng·h/mL per mg in the series with CYP3A4 [1] (day 1 of cycle 1) and 31.0 ng·h/mL per mg with CYP3A4 [1] (day 1 of cycle 4, after repeat vinblastine). The values for the half-life in the series on CYP3A4 [1] (day 1 of cycle 1) and with CYP3A4 [1] (day 1 of cycle 4) were 2.54 h and 3.08 h, respectively. The “% ↑ Midazolam Cl” value with CYP3A4 [1] (individual patients, cycle 4 vs cycle 1, after repeat vinblastine) is 51.7% and 35.9% and 216.7% and 2.5% and 46.9% and 6.9%. The “Midazolam clearance relative to value prior to treatment with vinblastine” value in the series on CYP3A4 [1] (one patient, midazolam on 5 occasions over 1.3 years, end of period) is recorded as 3.6 fold.

With `C/C=C/C[C@@H](C)C(=O)[C@H]1C(=O)N[C@@H](C(C)C)C(=O)N(C)CC(=O)N(C)[C@@H](CC(C)C)C(=O)N[C@@H](C(C)C)C(=O)N(C)[C@@H](CC(C)C)C(=O)N[C@@H](C)C(=O)N[C@H](C)C(=O)N(C)[C@@H](CC(C)C)C(=O)N(C)[C@@H](CC(C)C)C(=O)N(C)[C@@H](C(C)C)C(=O)N1C` [valspodar], the “Increase in transcriptional (reporter) activity of mouse NR1I2” value at mouse NR1I2 was “Increased activity of the reporter was not observed”. Also, on human NR1I3, the “Effect on transcriptional activity of human NR1I3” value was “Increased activity of the reporter was not observed”. Moreover, in the series with CYP3A4 [2], the CYP3A4 inhibition result is “very weak CYP3A4 inhibitor”. Also, on human NR1I2, the “Increase in transcriptional (reporter) activity of human NR1I2” value is “Increased activity of the reporter was not observed”. Further, the “Effect on transcriptional activity of mouse NR1I3” value on mouse NR1I3 is “Increased activity of the reporter was not observed”.

Take `CC[C@]1(O)C[C@@H]2CN(CCc3c([nH]c4ccccc34)[C@@](C(=O)OC)(c3cc4c(cc3OC)N(C)[C@H]3[C@@](O)(C(=O)OC)[C@H](OC(C)=O)[C@]5(CC)C=CCN6CC[C@]43[C@@H]65)C2)C1` [vinblastine, Vinblastine]: in series [3], the “CYP3A4 protein expression compared to DMSO-treated control cells” value is “substantially increased CYP3A4 protein expression”.
